# Test results reported in patent US9073833B1, “Oxime-based compound, pharmaceutical composition containing the same and method for preparing the same” (Chang Gung University, priority 2014, dated 2015).
# What was measured:
# [1] = molecular target: human neutrophil elastase (Homo sapiens (Human), UniProt P08246); assay: Inhibition of human neutrophil elastase activity (MeO-Suc-Ala-Ala-Pro-Val-p-nitroanilide, OD405); format: biochemical; details: mean ± SEM (n = 3), 30° C., 30 minutes
# [2] = test system: acute lung injury induced by LPS; assay: LPS-induced acute lung injury: tissue pathological examination of lung; format: in vivo, mouse (C57BL/6); details: 100 mg/kg intraperitoneal; 6 hours after LPS; H&E, 400×
# Description: The left lung tissue of the mice from each group was rinsed with PBS and was fixed using a fixating solution (10% paraformaldehyde prepared in PBS) for 24 hours, followed by subjecting to ethanol dehydration treatment. The dehydrated tissue was then embedded in paraffin and sliced, thereby obtaining a sample with 4 to 6 μm thickness. The paraffin was then removed from the sample. The tissue was then stained with hematoxylin and eosin, was observed using an optical microscope (IX81, Olympus) at 400× magnification, and an image thereof was captured using a digital camera (DP72, Olympus).
# [3] = test system: foot edema induced by human neutrophil elastase; assay: Foot edema induced by human neutrophil elastase in mice
# [4] = test system: acute lung injury induced by LPS; assay: LPS-induced acute lung injury: myeloperoxidase (MPO) activity in lung tissue; details: 100 mg/kg intraperitoneal, 60 minutes before LPS; 6 hours after LPS
# Chain of human neutrophil elastase (P08246 30-267): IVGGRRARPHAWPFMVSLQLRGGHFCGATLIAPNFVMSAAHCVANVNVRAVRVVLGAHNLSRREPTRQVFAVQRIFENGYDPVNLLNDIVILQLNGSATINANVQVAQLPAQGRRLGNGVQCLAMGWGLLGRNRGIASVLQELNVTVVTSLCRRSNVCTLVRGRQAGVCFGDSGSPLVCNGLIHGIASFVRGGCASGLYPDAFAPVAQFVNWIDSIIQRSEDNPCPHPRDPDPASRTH
Structure (SMILES),IC50 [1] [µM],"lung histology (alveolar edema, interstitial lung edema, leukocyte infiltration) [2]","edema degree (change in foot thickness) vs pathological control group ([3]; 50 mg/kg and 100 mg/kg intraperitoneal, 60 minutes before elastase, 10th-240th minute)","reduction of edema degree compared with Sivelestat ([3]; 100 mg/kg intraperitoneal, Sivelestat 100 mg/kg)",MPO activity in lung tissue vs pathological control group [4]
"C/C(=N\OCCCO)c1ccccc1NS(=O)(=O)c1ccc(OC(=O)C(C)(C)C)cc1 [Compound 7, (E)-4-(N-(2-(1-(3-hydroxypropoxyimino)ethyl)phenyl)sulfamoyl)phenyl pivalate]",159 ± 15.5,,,,
"C/C(=N\O)c1ccccc1NS(=O)(=O)c1ccc(OC(=O)C(C)(C)C)cc1 [Compound 1, (E)-4-(N-(2-(1(hydroxyimino)ethyl)phenyl)sulfamoyl)phenyl pivalate]",,"minor alveolar edema, interstitial lung edema, and leukocyte infiltration",relatively lower edema degree,superior effect in reduction of edema degree to Sivelestat,significantly reduced MPO activity
